Here are results for 2 compounds from ChEMBL document CHEMBL5625227, “Discovery and optimization of 2,3-diaryl-1,3-thiazolidin-4-one-based derivatives as potent and selective cytotoxic agents with anti-inflammatory activity” (Eur J Med Chem, 2023).

For data set [1], the system named is MCF7. As to the kind of experiment: Cytotoxicity against human MCF7 cells assessed as inhibition in cell growth incubated for 72 hrs by MTT assay. The data set is classed as functional, cell-based. To be noted: MCF7, 72 h. Background: Tetrazolium dyes change colour on reduction, which living cells bring about.
Data set [2] deals with HT-29. As to the kind of experiment: Cytotoxicity against human HT-29 cells assessed as inhibition in cell growth incubated for 72 hrs by MTT assay. To be noted: HT-29, 72 h. The data set is classed as functional, cell-based.
In data set [3] the test system is A2780. As to the kind of experiment: Cytotoxicity against human A2780 cells assessed as inhibition in cell growth incubated for 72 hrs by MTT assay. To be noted: A2780, 72 h. The data set is classed as functional, cell-based.
The subject of data set [4] is Rattus norvegicus. The data set is described as follows: Antiinflammatory activity against carrageenan-induced paw edema Sprague-Dawley rat model assessed as inhibition of paw edema by measuring edema thickness at 50 mg/kg, po measured after 1 hr (reference value: 0.71 +/- 0.03 mm). Format: functional. On the technique in general: In the carrageenan paw model, swelling and tenderness develop within hours.

Data set [5] deals with Rattus norvegicus. The data set is described as follows: Antiinflammatory activity against carrageenan-induced paw edema Sprague-Dawley rat model assessed as inhibition of paw edema by measuring edema thickness at 50 mg/kg, po measured after 3 hrs (reference value: 1.41 +/- 0.13 mm). Format: functional.
For data set [6], the system named is Rattus norvegicus. The data set is described as follows: Antiinflammatory activity against carrageenan-induced paw edema Sprague-Dawley rat model assessed as inhibition of paw edema by measuring edema thickness at 50 mg/kg, po measured after 5 hrs (reference value: 1.39 +/- 0.11 mm). Format: functional.
Data set [7] deals with Rattus norvegicus. The data set is described as follows: Antiinflammatory activity against carrageenan-induced paw edema Sprague-Dawley rat model assessed as inhibition of inflammation at 50 mg/kg, po after 1 hr relative to control. The data set is classed as functional. Also noted: scale not given: the % may be the effect or the level left.
Data set [8] relates to Rattus norvegicus. The data set is described as follows: Antiinflammatory activity against carrageenan-induced paw edema Sprague-Dawley rat model assessed as inhibition of inflammation at 50 mg/kg, po after 5 hrs relative to control. Also noted: scale not given: the % may be the effect or the level left. The data set is classed as functional.
The nature of data set [9]: Acute ulcerogenic activity in Sprague-Dawley male rat assessed as incidence of ulcer/10 animal at 50 mg/kg/day, po administered for 3 days. Format: toxicity, organism-based. To be noted: in vivo, 72 h, time 3 day.
A short description of data set [10]: Acute ulcerogenic activity in Sprague-Dawley male rat assessed as average number of ulcers at 50 mg/kg/day, po administered for 3 days. Format: toxicity, organism-based. To be noted: in vivo, 72 h, time 3 day.
Data set [11] is described as follows: Acute ulcerogenic activity in Sprague-Dawley male rat assessed as average severity of ulcers at 50 mg/kg/day, po administered for 3 days. The data set is classed as toxicity, organism-based. To be noted: in vivo, 72 h, time 3 day.
A short description of data set [12]: Acute ulcerogenic activity in Sprague-Dawley male rat assessed as ulcer index at 50 mg/kg/day, po administered for 3 days. Format: toxicity, organism-based. The conditions noted are these: in vivo, 72 h, time 3 day.
A short description of data set [13]: Acute ulcerogenic activity in Sprague-Dawley male rat assessed as nonactivated glands in intact mucosa at 50 mg/kg/day, po administered for 3 days by hematoxylin and eosin staining method. The data set is classed as toxicity, organism-based, Stomach. To be noted: in vivo, 72 h, time 3 day.
A short description of data set [14]: Acute ulcerogenic activity in Sprague-Dawley male rat assessed as congestion in intact mucosa at 50 mg/kg/day, po administered for 3 days by hematoxylin and eosin staining method. To be noted: in vivo, 72 h, time 3 day. The data set is classed as toxicity, organism-based, Stomach.
The nature of data set [15]: Acute ulcerogenic activity in Sprague-Dawley male rat by measuring filtration of inflammatory cells in edema at 50 mg/kg/day, po administered for 3 days by hematoxylin and eosin staining method. The data set is classed as toxicity, organism-based, Stomach. To be noted: in vivo, 72 h, time 3 day.
Data set [16] can be described thus: Acute ulcerogenic activity in Sprague-Dawley male rat assessed as abnormal structure of the gastric layer by measuring deeply congested blood vessels and aggregated of inflammatory cells at 50 mg/kg/day, po administered for 3 days by hematoxylin and eosin staining method. Format: toxicity, organism-based, Stomach. To be noted: in vivo, 72 h, time 3 day.
Data set [17] can be described thus: Acute ulcerogenic activity in Sprague-Dawley male rat assessed as abnormal structure of the gastric layer by measuring inflammatory cells infiltration in lamina propria at 50 mg/kg/day, po administered for 3 days by hematoxylin and eosin staining method. Format: toxicity, organism-based, Stomach. The conditions noted are these: in vivo, 72 h, time 3 day.
Data set [18] is described as follows: Acute ulcerogenic activity in Sprague-Dawley male rat assessed as abnormal structure of the gastric layer by measuring infiltration of lymphocytes in lamina propria at 50 mg/kg/day, po administered for 3 days by hematoxylin and eosin staining method. To be noted: in vivo, 72 h, time 3 day. Format: toxicity, organism-based, Stomach.
Data set [19] in a line: Acute ulcerogenic activity in Sprague-Dawley male rat assessed as abnormal structure of the gastric layer by measuring infiltration of macrophages in lamina propria at 50 mg/kg/day, po administered for 3 days by hematoxylin and eosin staining method. Format: toxicity, organism-based, Stomach. The conditions noted are these: in vivo, 72 h, time 3 day.
The nature of data set [20]: Acute ulcerogenic activity in Sprague-Dawley male rat assessed as abnormal structure of the gastric layer by measuring infiltration of lymphocytes in submucosa at 50 mg/kg/day, po administered for 3 days by hematoxylin and eosin staining method. The conditions noted are these: in vivo, 72 h, time 3 day. The data set is classed as toxicity, organism-based, Stomach.
Data set [21] in a line: Acute ulcerogenic activity in Sprague-Dawley male rat assessed as abnormal structure of the gastric layer by measuring infiltration of macrophages in submucosa at 50 mg/kg/day, po administered for 3 days by hematoxylin and eosin staining method. Format: toxicity, organism-based, Stomach. The conditions noted are these: in vivo, 72 h, time 3 day.
Data set [22] can be described thus: Acute ulcerogenic activity in Sprague-Dawley male rat assessed as abnormal structure of the gastric layer by measuring glandular hyperactivation in submucosa at 50 mg/kg/day, po administered for 3 days by hematoxylin and eosin staining method. To be noted: in vivo, 72 h, time 3 day. Format: toxicity, organism-based, Stomach.

Molecules are shown by their SMILES. pIC50: −log10 of the molar value.

On to `Cc1ccc(-c2cc(C(F)(F)F)nn2-c2ccc(S(N)(=O)=O)cc2)cc1` [CELECOXIB], for which the values for the pIC50 in data set [1], in [2] and in data set [3] were 4.81, 4.49 and 4.74, respectively. The Activity in [4] is listed as 0.27 mm; in [5], 0.34 mm; in data set [6], 0.5 mm; in [7], 61.97%; in [8] it was 64.03%; in data set [9], 6.67%. Moreover, the Activity in data set [10] is on record as 0.67; in [11] it was 1; in data set [13] it was “Non-Toxic”; in data set [14], “Toxic”; in [15], “Non-Toxic”. Moreover, the UI in [12] is given as 8.34.
As to `COc1ccc2c(c1)c(CC(=O)O)c(C)n2C(=O)c1ccc(Cl)cc1` [INDOMETHACIN], the Activity amounted to 0.41 mm in data set [4]; 0.22 mm in data set [5]; 0.24 mm in [6]; 42.25% in [7]; 10% in data set [9]; 11.33 in [10]. The Activity in data set [11] was 1; in data set [16], “Toxic”; in data set [17], “Toxic”; in data set [18], “Toxic”; in [19] it was “Toxic”; in data set [20] it was “Toxic”. Also, the Activity result in data set [21] and in data set [22] was “Toxic” in each case. For the same compound, the UI in data set [12] is listed as 22.33.
